From US10888576B2, “Composition of HMB and ATP and methods of use” (Metabolic Technologies, Inc., priority 2018, dated 2021)

Assays:
resistance-trained males [1] = assay: Skeletal muscle hypertrophy: ultrasonography muscle thickness of quadriceps (VL and VI); format: in vivo, human; details: for 12-week increases in quadriceps thicknesses: 12 weeks
cortisol = assay: Serum cortisol ELISA; format: in vivo, human; details: for effect on cortisol levels: during the study, vs placebo; for Cortisol: Mean ± SEM
Method: (§1) Prior to the study, participants were randomly assigned to receive either 3 g per day of HMB Free Acid (HMB) (combined with food-grade orange flavors and sweeteners), 400 mg per day of ATP (PEAK ATP®; TSI, Inc.), a combination of both 3 g of HMB and 400 mg per day of ATP, or a placebo (food-grade orange flavors and sweeteners) divided equally into three servings daily with the first serving given 30 minutes prior to exercise and the remaining two servings daily with the mid-day and evening meals. On the non-training days participants were instructed to consume one serving with each of three separate meals. The supplementation was continued daily throughout the training and testing protocols. Each serving was formulated with 1 gram of HMB free acid to account for fill and emptying variation and achieve a minimum effective dosage of 0.800 grams. This dosage would be equivalent to a 1 gram Ca-HMB dosage.
(§2) All blood draws throughout the study were obtained via venipuncture after a 12-hour fast by a trained phlebotomist. Whole blood was collected and transferred into appropriate tubes for obtaining serum and plasma and centrifuged at 1,500 g for 15 min at 4° C. Resulting serum and plasma were then aliquoted and stored at −80° C. until subsequent analyses.
(§3) Samples were thawed one time and analyzed in duplicate for each analyte. All blood draws were scheduled at the same time of day to negate confounding influences of diurnal hormonal variations. Serum total and free testosterone, cortisol, and C-reactive protein (CRP) were assayed via ELISA kits obtained from Diagnostic Systems Laboratories (Webster, Tex.). All hormones were measured in the same assay on the same day to avoid compounded interassay variance. […] Serum creatine kinase (CK) was measured using colorimetric procedures at 340 nm (Diagnostics Chemicals, Oxford, Conn.). Twenty-four hour urine collections were made and 3-methylhistine was determined by previously described methods (Rathmacher et al 1992 and Wilson et al, 2013).

total testosterone = assay: Serum total testosterone ELISA; format: in vivo, human; details: for effect on total testosterone: main effect; for Total Testosterone: Mean ± SEM
Method: as §1, §2, §3

resistance-trained males [2] = assay: Muscle strength: 1RM of back squat, bench press and deadlift (total strength); format: in vivo, human; details: for change in total strength during the overreaching cycle: from week 8 to week 10; for total strength gains: over the 12-week study, 1-RM of squat, bench press, deadlift
Method: After familiarization with procedures, muscle strength was assessed via 1RM testing of the back squat, bench press, and […]. Each lift was performed as described by the International Powerlifting Federation rules (44). Body composition (lean body mass, fat mass, and total mass) was determined by dual x-ray absorptiometry (DXA; Lunar Prodigy enCORE 2008, Madison, Wis., U.S.A.). Skeletal muscle hypertrophy was determined via the combined changes in ultrasonography-determined muscle thickness of the vastus lateralis (VL) and vastus intermedius (VI) muscles. The intraclass correlation coefficient (ICC) for the test-retest of muscle thickness measurements was r=0.97. Prior to the study, participants were randomly assigned to receive either 3 g per day of HMB Free Acid (HMB) (combined with food-grade orange flavors and sweeteners), 400 mg per day of ATP (PEAK ATP®; TSI, Inc.), a combination of both 3 g of HMB and 400 mg per day of ATP, or a placebo (food-grade orange flavors and sweeteners) divided equally into three servings daily with the first serving given 30 minutes prior to exercise and the remaining two servings daily with the mid-day and evening meals. On the non-training days participants were instructed to consume one serving with each of three separate meals. The supplementation was continued daily throughout the training and testing protocols. […] This dosage would be equivalent to a 1 gram Ca-HMB dosage. All participants performed a high volume resistance training protocol during the 12-week study. The phases of the study and measurements taken are shown in FIG. 1, and the exercise protocols for each phase of the study are shown in Tables 1 to 3. The training was divided into 3 phases, with Phase 1 consisting of daily undulating periodization (weeks 1 to 8), Phase 2 consisting of the overreaching cycle (weeks 9 and 10), and Phase 3 consisting of the taper cycle (weeks 11 and 12).

resistance-trained males [3] = assay: Wingate test peak power (maximal cycling); format: in vivo, human; details: for Wingate PP gains in power from baseline: after the first week of the increased training (overreaching); for Wingate PP decrease: during the 2-week overreaching cycle
Method: Muscle power was assessed during maximal cycling (Wingate Test) and jumping movements. During the cycling test, volunteers were instructed to cycle against a predetermined resistance (7.5% of body weight) as fast as possible for 10 seconds (36). The saddle height was adjusted to the individual's height to produce a 5-10° knee flexion while the foot was in the low position of the central void. A standardized verbal stimulus was provided to each participant. Power output was recorded in real time during the 10-second sprint test, by a computer connected to the standard cycle ergometer (Monark model 894e, Vansbro, Sweden). Peak power (PP) was recorded using Monark Anaerobic Wingate Software, Version 1.0 (Monark, Vansbro, Sweden). The ICC of muscle peak power was 0.96. Prior to the study, participants were randomly assigned to receive either 3 g per day of HMB Free Acid (HMB) (combined with food-grade orange flavors and sweeteners), 400 mg per day of ATP (PEAK ATP®; TSI, Inc.), a combination of both 3 g of HMB and 400 mg per day of ATP, or a placebo (food-grade orange flavors and sweeteners) divided equally into three servings daily with the first serving given 30 minutes prior to exercise and the remaining two servings daily with the mid-day and evening meals. On the non-training days participants were instructed to consume one serving with each of three separate meals. The supplementation was continued daily throughout the training and testing protocols. […] This dosage would be equivalent to a 1 gram Ca-HMB dosage. All participants performed a high volume resistance training protocol during the 12-week study. The phases of the study and measurements taken are shown in FIG. 1, and the exercise protocols for each phase of the study are shown in Tables 1 to 3. The training was divided into 3 phases, with Phase 1 consisting of daily undulating periodization (weeks 1 to 8), Phase 2 consisting of the overreaching cycle (weeks 9 and 10), and Phase 3 consisting of the taper cycle (weeks 11 and 12).

skeletal muscle = details: acute ingestion of 2.4 grams; cited from earlier work
[4] = after HMB is fed; cited from earlier work
[5] = after administration; cited from earlier work

| Structure (SMILES) | 12-week increases in quadriceps thicknesses (resistance-trained males [1]) | Quad (quadriceps muscle thickness) (resistance-trained males [1]; week 0 (baseline)) | Quad (quadriceps muscle thickness) (resistance-trained males [1]; week 4) | Quad (quadriceps muscle thickness) (resistance-trained males [1]; week 8) | Quad (quadriceps muscle thickness) (resistance-trained males [1]; week 12) | effect on cortisol levels (cortisol) | Cortisol (cortisol; week 0 (baseline)) | Cortisol (cortisol; week 1) | Cortisol (cortisol; week 4) | Cortisol (cortisol; week 8) | Cortisol (cortisol; week 9 (overreaching)) | Cortisol (cortisol; week 10 (overreaching)) | Cortisol (cortisol; week 12) | effect on total testosterone (total testosterone) | Total Testosterone (total testosterone; week 0 (baseline)) | Total Testosterone (total testosterone; week 1) | Total Testosterone (total testosterone; week 4) | Total Testosterone (total testosterone; week 8) | Total Testosterone (total testosterone; week 9 (overreaching)) | Total Testosterone (total testosterone; week 10 (overreaching)) | also measured |
| --- | --- | --- | --- | --- | --- | --- | --- | --- | --- | --- | --- | --- | --- | --- | --- | --- | --- | --- | --- | --- | --- |
| CC(C)(O)CC(=O)O [HMB-FA, β-hydroxy-β-methylbutyric acid] | 7.1±1.2 mm | 50.7 ± 1.5 mm | 53.6 ± 1.4 mm | 56.0 ± 1.4 mm | 57.8 ± 1.6 mm | decreased cortisol levels | 21.5 ± 1.4 µg/dL | 20.3 ± 1.2 µg/dL | 20.9 ± 1.0 µg/dL | 18.8 ± 1.5 µg/dL | 19.6 ± 1.1 µg/dL | 18.6 ± 1.2 µg/dL | 17.4 ± 1.2 µg/dL | no main effect differences | 708 ± 35 ng/dL | 708 ± 48 ng/dL | 730 ± 63 ng/dL | 652 ± 35 ng/dL | 752 ± 61 ng/dL | 701 ± 34 ng/dL | Total Testosterone (total testosterone; week 12): 728 ± 39 ng/dL; change in total strength during the overreaching cycle (resistance-trained males [2]): −0.5±1.2%; total strength gains (resistance-trained males [2]): 77.1 ± 5.6 kg; Wingate PP gains in power from baseline (resistance-trained males [3]): 10.2±1.6%; Wingate PP decrease (resistance-trained males [3]): 0.3±0.9%; change in protein breakdown (skeletal muscle): −56%; change in skeletal muscle protein synthesis (skeletal muscle): +70%; loss of HMB to urine [4]: 20-50%; plasma levels of HMB compared with calcium HMB [5]: approximately double the plasma levels of HMB; time to plasma levels compared with calcium HMB [5]: about one-quarter the time |
| Nc1ncnc2c1ncn2[C@@H]1O[C@H](COP(=O)(O)OP(=O)(O)OP(=O)(O)O)[C@@H](O)[C@H]1O [ATP, Adenosine-5′-triphosphate] | 4.9±1.0 mm | 50.9 ± 0.9 mm | 53.4 ± 1.3 mm | 54.8 ± 1.7 mm | 55.8 ± 1.8 mm | did not affect cortisol levels | 20.9 ± 1.2 µg/dL | 20.5 ± 1.3 µg/dL | 18.4 ± 1.4 µg/dL | 19.0 ± 0.4 µg/dL | 21.5 ± 0.4 µg/dL | 22.6 ± 0.2 µg/dL | 19.7 ± 0.6 µg/dL | no main effect differences | 660 ± 67 ng/dL | 645 ± 54 ng/dL | 695 ± 60 ng/dL | 645 ± 60 ng/dL | 621 ± 49 ng/dL | 592 ± 84 ng/dL | Total Testosterone (total testosterone; week 12): 673 ± 69 ng/dL; change in total strength during the overreaching cycle (resistance-trained males [2]): −2.±0.5%; total strength gains (resistance-trained males [2]): 55.3 ± 6.0 kg; Wingate PP gains in power from baseline (resistance-trained males [3]): 9.0±1.6%; Wingate PP decrease (resistance-trained males [3]): 2.9±0.7% |
